In US4507297A, “Piperazine derivatives and a medicine containing the same” (priority 1981, dated 1985):
Counter-ions that a name gives are not always drawn. Like-named read-outs stand apart in the source and are kept apart here.

How the values were obtained:
[1] = test system: experimental myocardial infarction; assay: Effects against an experimental myocardial infarction (anterior descending artery ligation, necrotic area by planimetry); assay type: in vivo, rabbit; conditions: for inhibition in vivo at 200 mg/kg: read-out: Inhibition rates (%), T = 200 mg/kg, i.v.
Method: The chest wall of each animal was incised under artificial respiration, and the anterior descending artery was ligated (about 7 mm downward of the starting portion). 24 Hours later, the heart was taken out, and a myocardium between the cadiac apex and the ligated portion was sliced to have a thickness of 2 mm and stained to distinguish the infarction-affected portions by a phosphorylase reaction, whereupon the area of the necrotic portion was calculated by planimetory. Medicinal substances were administered 5 minutes prior to the ligation (T/2 mg/kg, i.v.), continuously from immediately after the ligation to one hour later (T/4 mg/kg/hr, by constant dropping), 2 hours after the ligation (T/8 mg/kg, i.v.) and 3 hours after the ligation (T/8 mg/kg, i.v.). Each medicinal substance was administered in the form of a physiological sodium chloride solution. Where the substance was hardly soluble, it was used in the form of a salt. To a control group was administered only a physiological sodium chloride solution. (T means a total amount of administration.)

mice = assay: in vivo; conditions: i.v., tail of mice
Method: (§1) Medicinal substances were administered intravenously from the tails of the mice.

in vivo = conditions: mouse, in vivo, iv, tail of mice
Method: as §1

[2] = Oryctolagus cuniculus, iv, 24 h, vs control 14.1 ± 1.0
[3] = T = 200 mg/kg, i.v., 8 cases, control 14.1 ± 1.0
[4] = Oryctolagus cuniculus, iv, 24 h, vs control 14.9 ± 0.7
[5] = T = 200 mg/kg, i.v., 8 cases, control 14.9 ± 0.7
[6] = Oryctolagus cuniculus, iv, 24 h, T = 40 mg/kg, i.v., vs control 14.1 ± 1.0, read-out: Inhibition rates (%)
[7] = T = 40 mg/kg, i.v., 8 cases, control 14.1 ± 1.0

## COc1ccc(CN2CCN(C(=O)[C@H](CC(C)C)NC(=O)[C@@H]3O[C@H]3C(=O)[O-])CC2)c(OC)c1OC.[Na+] [listing 1 of 2 here]
[1]; [2]
  inhibition in vivo at 200 mg/kg: 30.5%
[1]; [3]
  Necrotic area (mean ± S.E. %): 9.8 ± 0.9%

## COc1ccc(CN2CCN(C(=O)[C@H](CC(C)C)NC(=O)[C@H]3O[C@@H]3C(=O)[O-])CC2)c(OC)c1OC.[Na+]
[1]; [2]
  inhibition in vivo at 200 mg/kg: 24.1%
[1]; [3]
  Necrotic area (mean ± S.E. %): 10.7 ± 0.9%
mice
  MLD (in column LD50 mice): > 1125 mg/kg

## CC(C)C[C@H](NC(=O)[C@@H]1O[C@H]1C(=O)[O-])C(=O)N1CCN(c2ncccn2)CC1.[Na+] [listing 1 of 2 here]
[1]; [2]
  inhibition in vivo at 200 mg/kg: 23%
[1]; [3]
  Necrotic area (mean ± S.E. %): 11.1 ± 0.7%

## CC(C)C[C@H](NC(=O)[C@H]1O[C@@H]1C(=O)[O-])C(=O)N1CCN(c2ncccn2)CC1.[Na+]
[1]; [2]
  inhibition in vivo at 200 mg/kg: 26%
[1]; [3]
  Necrotic area (mean ± S.E. %): 10.7 ± 0.4%
mice
  MLD (in column LD50 mice): > 1125 mg/kg

## CC(C)C[C@H](NC(=O)[C@@H]1O[C@H]1C(=O)[O-])C(=O)N1CCN(Cc2ccccc2)CC1.[Na+]
[1]; [4]
  inhibition in vivo at 200 mg/kg: 20.1%
[1]; [5]
  Necrotic area (mean ± S.E. %): 11.9 ± 0.6%
mice
  MLD (in column LD50 mice): > 1125 mg/kg

## COc1ccc(CN2CCN(C(=O)[C@H](CC(C)C)NC(=O)[C@@H]3O[C@H]3C(=O)[O-])CC2)cc1.[Na+]
[1]; [4]
  inhibition in vivo at 200 mg/kg: 20.1%
[1]; [5]
  Necrotic area (mean ± S.E. %): 11.9 ± 0.8%
mice
  MLD (in column LD50 mice): > 1125 mg/kg

## COc1ccc(CN2CCN(C(=O)[C@H](CC(C)C)NC(=O)[C@@H]3O[C@H]3C(=O)[O-])CC2)c(OC)c1OC.[Na+] [listing 2 of 2 here]
[1]; [4]
  inhibition in vivo at 200 mg/kg: 29.5%
[1]; [5]
  Necrotic area (mean ± S.E. %): 10.5 ± 0.9%
mice
  MLD (in column LD50 mice): > 1125 mg/kg

## CCN1CCN(C(=O)[C@H](CC(C)C)NC(=O)[C@@H]2O[C@H]2C(=O)[O-])CC1.[Na+]
[1]; [4]
  inhibition in vivo at 200 mg/kg: 20.8%
[1]; [5]
  Necrotic area (mean ± S.E. %): 11.8 ± 0.9%
mice
  MLD (in column LD50 mice): > 1125 mg/kg

## CC(C)C[C@H](NC(=O)[C@@H]1O[C@H]1C(=O)[O-])C(=O)N1CCN(CC=Cc2ccccc2)CC1.[Na+]
[1]; Oryctolagus cuniculus, iv, 24 h, read-out: Inhibition rates (%), T = 100 mg/kg, i.v., vs control 14.9 ± 0.7
  inhibition in vivo at 100 mg/kg: 25.5%
[1]; T = 100 mg/kg, i.v., 8 cases, control 14.9 ± 0.7
  Necrotic area (mean ± S.E. %): 11.1 ± 0.6%
mice
  MLD (in column LD50 mice): 1000 to 1125 mg/kg

## CC(C)C[C@H](NC(=O)[C@@H]1O[C@H]1C(=O)[O-])C(=O)N1CCN(c2ccccn2)CC1.[Na+]
[1]; [4]
  inhibition in vivo at 200 mg/kg: 22.1%
[1]; [5]
  Necrotic area (mean ± S.E. %): 11.6 ± 0.7%
mice
  MLD (in column LD50 mice): > 1125 mg/kg

## CC(C)C[C@H](NC(=O)[C@@H]1O[C@H]1C(=O)[O-])C(=O)N1CCN(c2ncccn2)CC1.[Na+] [listing 2 of 2 here]
[1]; [4]
  inhibition in vivo at 200 mg/kg: 25.5%
[1]; [5]
  Necrotic area (mean ± S.E. %): 11.1 ± 0.8%
mice
  MLD (in column LD50 mice): > 1125 mg/kg

## COc1ccc(CCN(C)CCCC(C#N)(c2ccc(OC)c(OC)c2)C(C)C)cc1OC (racemic) [Verapanil hydrochloride, reference compound]
[1]; Oryctolagus cuniculus, iv, 24 h, read-out: Inhibition rates (%), T = 2 mg/kg, i.v., vs control 14.6 ± 1.0
  inhibition in vivo at 2 mg/kg: 24.7%
[1]; T = 2 mg/kg, i.v., 7 cases (propranolol), 10 cases (verapanil), control 14.6 ± 1.0
  Necrotic area (mean ± S.E. %): 11.0 ± 1.3%

## CC(C)C[C@H](NC(=O)C1OC1C(=O)O)C(=O)N1CCN(C(c2ccccc2)c2ccccc2)CC1 (stereo partly drawn) [Compound 1]
[1]; Oryctolagus cuniculus, iv, 24 h, T = 80 mg/kg, i.v., vs control 14.9 ± 0.7, read-out: Inhibition rates (%)
  inhibition in vivo at 80 mg/kg: 24.8%
[1]; T = 80 mg/kg, i.v., 8 cases, control 14.9 ± 0.7
  Necrotic area (mean ± S.E. %): 11.2 ± 0.5%
In vivo
  LD50: 174 mg/kg

## COc1ccc(CN2CCN(C(=O)[C@H](CC(C)C)NC(=O)C3OC3C(=O)OCC(C)C)CC2)c(OC)c1OC (stereo partly drawn) [Compound 9, Isobutyl trans-3-[(s)-3-methyl-1-{4-(2,3,4-trimethoxyphenylmethyl)piperazine-1-ylcarbonyl}butylcarbamoyl]oxirane-2-carboxylate 1/2 sulfate]
[1]; [6]
  inhibition in vivo at 40 mg/kg: 18.4%
[1]; [7]
  Necrotic area (mean ± S.E. %): 11.5 ± 1.2%
In vivo
  LD50: 440 mg/kg

## CCOC(=O)C1OC1C(=O)N[C@@H](CC(C)C)C(=O)N1CCN(Cc2ccc(OC)c(OC)c2OC)CC1 (stereo partly drawn) [Compound 10, Ethyl trans-3-[(s)-3-methyl-1-{4-(2,3,4-trimethoxyphenylmethyl)piperazine-1-ylcarbonyl}butylcarbamoyl]oxirane-2-carboxylate 1/2 sulfate]
[1]; [6]
  inhibition in vivo at 40 mg/kg: 25.5%
[1]; [7]
  Necrotic area (mean ± S.E. %): 10.5 ± 1.1%

## CCOC(=O)[C@@H]1O[C@H]1C(=O)N[C@@H](CC(C)C)C(=O)N1CCN(Cc2ccc(OC)c(OC)c2OC)CC1 [Compound 11, Ethyl (2R,3R)-3-[(s)-3-methyl-1-{4-(2,3,4-trimethoxyphenylmethyl)piperazine-1-ylcarbonyl}butylcarbamoyl]oxirane-2-carboxylate 1/2 sulfate]
[1]; [6]
  inhibition in vivo at 40 mg/kg: 29.1%
[1]; [7]
  Necrotic area (mean ± S.E. %): 10.0 ± 1.0%
In vivo
  LD50: 374 mg/kg

## CCOC(=O)[C@H]1O[C@@H]1C(=O)N[C@@H](CC(C)C)C(=O)N1CCN(Cc2ccc(OC)c(OC)c2OC)CC1 [Compound 12, Ethyl (2S,3S)-3-[(s)-3-methyl-1-{4-(2,3,4-trimethoxyphenylmethyl)piperazine-1-ylcarbonyl}butylcarbamoyl]oxirane-2-carboxylate 1/2 sulfate]
[1]; [6]
  inhibition in vivo at 40 mg/kg: 19.9%
[1]; [7]
  Necrotic area (mean ± S.E. %): 11.3 ± 1.2%
In vivo
  LD50: 345 mg/kg

## CC(C)NCC(O)COc1cccc2ccccc12 (stereo not drawn) [Propranolol hydrochloride, reference compound]
[1]; Oryctolagus cuniculus, iv, 24 h, T = 1 mg/kg, i.v., vs control 14.6 ± 1.0, read-out: Inhibition rates (%)
  inhibition in vivo at 1 mg/kg: 6.2%
[1]; Oryctolagus cuniculus, iv, 24 h, T = 2 mg/kg, i.v., vs control 14.6 ± 1.0, read-out: Inhibition rates (%)
  inhibition in vivo at 2 mg/kg: 23.3%
[1]; Oryctolagus cuniculus, iv, 24 h, T = 4 mg/kg, i.v., vs control 14.6 ± 1.0, read-out: Inhibition rates (%)
  inhibition in vivo at 4 mg/kg: 26.7%
[1]; T = 1 mg/kg, i.v., 8 cases, control 14.6 ± 1.0
  Necrotic area (mean ± S.E. %): 13.7 ± 1.1%
